Reference: US20230010886A1 (SUZHOU PUHE BIOPHARMA CO., LTD., priority 2019, published 2023)

Legend:
Full length SHP2 enzyme = target: T1, Full length SHP2 enzyme (Homo sapiens, UniProt Q06124); test: SHP2 phosphatase assay; type: biochemical; settings: 1 μM IRS-1 peptide, DiFMUP substrate
T1 construct: Full length SHP2 enzyme (diluted to 0.1 nM in reaction buffer)
T1 sequence (Q06124 1-593): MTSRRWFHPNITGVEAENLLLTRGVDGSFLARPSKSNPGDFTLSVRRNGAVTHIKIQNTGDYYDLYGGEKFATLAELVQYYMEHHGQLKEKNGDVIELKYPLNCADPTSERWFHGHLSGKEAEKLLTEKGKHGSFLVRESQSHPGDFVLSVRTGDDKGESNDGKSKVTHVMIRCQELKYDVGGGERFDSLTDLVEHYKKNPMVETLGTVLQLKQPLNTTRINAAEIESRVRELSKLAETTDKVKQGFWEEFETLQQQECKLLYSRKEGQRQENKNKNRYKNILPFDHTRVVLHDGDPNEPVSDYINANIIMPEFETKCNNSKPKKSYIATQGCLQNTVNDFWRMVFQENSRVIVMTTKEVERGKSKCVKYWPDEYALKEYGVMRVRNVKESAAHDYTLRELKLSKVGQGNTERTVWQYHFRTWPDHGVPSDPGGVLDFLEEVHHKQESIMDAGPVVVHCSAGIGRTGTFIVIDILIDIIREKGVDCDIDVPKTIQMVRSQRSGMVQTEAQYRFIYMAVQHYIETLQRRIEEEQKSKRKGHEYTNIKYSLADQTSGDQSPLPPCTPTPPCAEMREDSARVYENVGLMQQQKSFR
Experimental: IC50 values were determined at room temperature in 384-well black polystyrene plate, using a final reaction volume of 15 μL and the following assay buffer conditions: 60 mM Hepes (pH=7.2), 75 mM NaCl, 75 mM KCl, and 1 mM EDTA, 0.05% P-20, 5 mM dithiothreitol (DTT). Full length SHP2 enzyme (diluted to 0.1 nM in reaction buffer) were co-incubated with 1 μM IRS-1 peptide and 0.01 nM to 10 μM compounds of the disclosure for 60 min. The surrogate substrate DiFMUP (5 μL, 100 μM) was added, and incubated at rt for 60 min. The reaction was then quenched by the addition of 5 μL of a 40 μM solution of bpV(Phen). The fluorescence signal was monitored using a microplate reader (Envision, Perkin-Elmer) using excitation and emission wavelengths of 360 nm and 450 nm, respectively. The inhibitor dose-response curves were analyzed using normalized IC50 regression curve fitting with control-based normalization.

KYSE-520 cell line = test: Cell proliferation assay (CellTiter Glo), KYSE-520; type: cell-based; settings: Homo sapiens, 3-5 days
Experimental: Firstly, the cells were seeded in 384-well cell culture plate and incubate overnight. The test compounds were added to the cell plate and incubated for 3-5 days. The cell plate was then detected using CellTiter Glo reagents.

CC1(CN)CCN(c2ncc(Sc3cccc(NC(=O)c4c(O)nc5sccn5c4=O)c3Cl)[nH]c2=O)CC1 [Example 31, N-(3-((5-(4-(aminomethyl)-4-methylpiperidin-1-yl)-6-oxo-1,6-dihydropyrazin-2-yl)thio)-2-chlorophenyl)-7-hydroxy-5-oxo-5H-thiazolo[3,2-a]pyrimidine-6-carboxamide]
IC50 (Full length SHP2 enzyme): ≤ 50 nM
IC50 (KYSE-520 cell line): < 5000 nM

N[C@@H]1COCC12CCN(c1ncc(Sc3cccc(Cl)c3Cl)[nH]c1=O)CC2 [Example 73, (S)-3-(4-amino-2-oxa-8-azaspiro[4.5]decan-8-yl)-6-((2,3-dichlorophenyl)thio)pyrazin-2 (1H)-one]
IC50 (Full length SHP2 enzyme): ≤ 50 nM
IC50 (KYSE-520 cell line): < 5000 nM

NC1COCC12CCN(c1ncc(Sc3cccc(Cl)c3Cl)[nH]c1=O)CC2 (stereo not drawn) [Example 10, 3-(4-amino-2-oxa-8-azaspiro[4.5]decan-8-yl)-6-((2,3-dichlorophenyl)thio)pyrazin-2 (1H)-one]
IC50 (KYSE-520 cell line): < 5000 nM

C[C@@H]1OCC2(CCN(c3ncc(Sc4ccnc(Cl)c4Cl)[nH]c3=O)CC2)[C@@H]1N [Example 81, 3-((3S,4S)-4-amino-3-methyl-2-oxa-8-azaspiro[4.5]decan-8-yl)-6-((2,3-dichloropyridin-4-yl)thio)pyrazin-2(1H)-one]
IC50 (Full length SHP2 enzyme): ≤ 50 nM
IC50 (KYSE-520 cell line): < 1000 nM

C[C@@H]1OCC2(CCN(c3ncc(Sc4cccc(F)c4F)[nH]c3=O)CC2)[C@@H]1N [Example 82, 3-((3S,4S)-4-amino-3-methyl-2-oxa-8-azaspiro[4.5]decan-8-yl)-6-((2,3-difluorophenyl)thio)pyrazin-2(1H)-one]
IC50 (Full length SHP2 enzyme): ≤ 50 nM
IC50 (KYSE-520 cell line): < 5000 nM

C[C@@H]1OCC2(CCN(c3ncc(Sc4cccc(F)c4Cl)[nH]c3=O)CC2)[C@@H]1N [Example 109, 3-((3S,4S)-4-amino-3-methyl-2-oxa-8-azaspiro[4.5]decan-8-yl)-6-((2-chloro-3-fluorophenyl)thio)pyrazin-2(1H)-one]
IC50 (Full length SHP2 enzyme): ≤ 50 nM
IC50 (KYSE-520 cell line): < 5000 nM

C[C@@H]1OCC2(CCN(c3ncc(Sc4ccnc(F)c4F)[nH]c3=O)CC2)[C@@H]1N [Example 84]
IC50 (Full length SHP2 enzyme): ≤ 50 nM
IC50 (KYSE-520 cell line): < 1000 nM

CC1(CN)CCN(c2ncc(Sc3cccc(NC(=O)c4c(O)nc5cnccn5c4=O)c3Cl)[nH]c2=O)CC1 [Example 30, N-(3-((5-(4-(aminomethyl)-4-methylpiperidin-1-yl)-6-oxo-1,6-dihydropyrazin-2-yl)thio)-2-chlorophenyl)-2-hydroxy-4-oxo-4H-pyrazino[1,2-a]pyrimidine-3-carboxamide]
IC50 (Full length SHP2 enzyme): ≤ 50 nM

C[C@@H]1OCC2(CCN(c3ncc(Sc4cc[nH]c(=O)c4Cl)[nH]c3=O)CC2)[C@@H]1N [Example 107, 3-((3S,4S)-4-amino-3-methyl-2-oxa-8-azaspiro[4.5]decan-8-yl)-6-((3-chloro-2-oxo-1,2-dihydro-pyridin-4-yl)thio)pyrazin-2(1H)-one]
IC50 (Full length SHP2 enzyme): ≤ 50 nM

C[C@@H]1OCC2(CCN(c3ncc(Sc4ccnc(N)c4Cl)nc3O)CC2)[C@@H]1N [Example 77, 6-((2-amino-3-chloropyridin-4-yl)thio)-3-((3S,4S)-4-amino-3-methyl-2-oxa-8-azaspiro[4.5]decan-8-yl)pyrazin-2(1H)-one]
IC50 (Full length SHP2 enzyme): ≤ 50 nM

NC1C2CN(c3ncc(Sc4cccc(Cl)c4Cl)[nH]c3=O)CC12 (stereo not drawn) [Example 86, 3-(6-amino-3-azabicyclo[3.1.0]hexan-3-yl)-6-((2,3-dichlorophenyl)thio)pyrazin-2(1H)-one]
IC50 (Full length SHP2 enzyme): ≤ 50 nM

Cn1c(N2CCC(C)(CN)C2)nc(N)c(Sc2cccc(Cl)c2Cl)c1=O (stereo not drawn) [Example 52, 6-amino-2-(3-(aminomethyl)-3-methylpyrrolidin-1-yl)-5-((2,3-dichlorophenyl)thio)-3-methylpyrimidin-4(3H)-one]
IC50 (Full length SHP2 enzyme): ≤ 50 nM

CC1(CN)CCN(c2ncc(Sc3cccc(NC(=O)c4c(O)nc5ccccn5c4=O)c3Cl)[nH]c2=O)CC1 [Example 29, N-(3-((5-(4-(aminomethyl)-4-methylpiperidin-1-yl)-6-oxo-1,6-dihydropyrazin-2-yl)thio)-2-chlorophenyl)-2-hydroxy-4-oxo-4H-pyrido[1,2-a]pyrimidine-3-carboxamide]
IC50 (Full length SHP2 enzyme): ≤ 50 nM
IC50 (KYSE-520 cell line): < 5000 nM

CN1C(=O)C(C(=O)Nc2cccc(Sc3cnc(N4CCC(C)(CN)CC4)c(=O)[nH]3)c2Cl)=C(O)C1(C)C [Example 28, N-(3-((5-(4-(aminomethyl)-4-methylpiperidin-1-yl)-6-oxo-1,6-dihydropyrazin-2-yl)thio)-2-chlorophenyl)-4-hydroxy-1,5,5-trimethyl-2-oxo-2,5-dihydro-1H-pyrrole-3-carboxamide]
IC50 (Full length SHP2 enzyme): ≤ 50 nM

Nc1nccc(Sc2cnc(N3CCC4(CC3)Oc3ccccc3[C@H]4N)c(=O)[nH]2)c1Cl [Example 124, (R)-6-((2-amino-3-chloropyridin-4-yl)thio)-3-(3-amino-3H-spiro[benzofuran-2,4′-piperidin]-1′-yl)pyrazin-2(1H)-one]
IC50 (Full length SHP2 enzyme): ≤ 50 nM

COc1cccc(Sc2cnc(N3CCC4(CC3)CO[C@@H](C)[C@H]4N)c(=O)[nH]2)c1Cl [Example 79, 3-((3S,4S)-4-amino-3-methyl-2-oxa-8-azaspiro[4.5]decan-8-yl)-6-((2-chloro-3-methoxyphenyl)thio)pyrazin-2 (1H)-one]
IC50 (Full length SHP2 enzyme): ≤ 50 nM

N[C@@H]1c2cccnc2CC12CCN(c1ncc(Sc3cccc(Cl)c3Cl)[nH]c1=O)CC2 [Example 134, (S)-3-(5-amino-5,7-dihydrospiro[cyclopenta[b]pyridine-6,4′-piperidin]-1′-yl)-6-((2,3-dichlorophenyl)thio)pyrazin-2(1H)-one]
IC50 (Full length SHP2 enzyme): ≤ 50 nM

C[C@@H]1OCC2(CCN(c3ncc(Sc4ccnc(F)c4Cl)[nH]c3=O)CC2)[C@@H]1N [Example 83, 3-((3S,4S)-4-amino-3-methyl-2-oxa-8-azaspiro[4.5]decan-8-yl)-6-((3-chloro-2-fluoropyridin-4-yl)thio)pyrazin-2(1H)-one]
IC50 (Full length SHP2 enzyme): ≤ 50 nM
IC50 (KYSE-520 cell line): < 1000 nM

C[C@@H]1OCC2(CCN(c3ncc(Sc4cccc(N)c4F)[nH]c3=O)CC2)[C@@H]1N [Example 126, 6-((3-amino-2-fluorophenyl)thio)-3-((3S,4S)-4-amino-3-methyl-2-oxa-8-azaspiro[4.5]decan-8-yl)pyrazin-2(1H)-one]
IC50 (Full length SHP2 enzyme): ≤ 50 nM

COc1ccc2c(c1)CC1(CCN(c3ncc(Sc4cccc(Cl)c4Cl)[nH]c3=O)CC1)[C@@H]2N [Example 131, (S)-3-(1-amino-5-methoxy-1,3-dihydrospiro[indene-2,4′-piperidin]-1′-yl)-6-((2,3-dichlorophenyl)thio)pyrazin-2 (1H)-one]
IC50 (Full length SHP2 enzyme): ≤ 50 nM

COc1nccc(Sc2cnc(N3CCC4(CC3)CO[C@@H](C)[C@H]4N)c(=O)[nH]2)c1Cl [Example 80, 3-((3S,4S)-4-amino-3-methyl-2-oxa-8-azaspiro[4.5]decan-8-yl)-6-((3-chloro-2-methoxypyridin-4-yl)thio)pyrazin-2(1H)-one]
IC50 (Full length SHP2 enzyme): ≤ 50 nM

Nc1nccc(Sc2cnc(N3CCC4(CC3)Cc3sc(Cl)nc3C4N)c(=O)[nH]2)c1Cl (stereo not drawn) [Example 117, 3-(4-amino-2-chloro-4,6-dihydrospiro[cyclopenta[d]thiazole-5,4′-piperidin]-1′-yl)-6-((2-amino-3-chloropyridin-4-yl)thio)pyrazin-2(1H)-one]
IC50 (Full length SHP2 enzyme): ≤ 50 nM

CC1(CN)CCN(c2ncc(Sc3cccc(NC(=O)c4c(O)nc5n(c4=O)CCCC5)c3Cl)[nH]c2=O)CC1 [Example 33, N-(3-((5-(4-(aminomethyl)-4-methylpiperidin-1-yl)-6-oxo-1,6-dihydropyrazin-2-yl)thio)-2-chlorophenyl)-2-hydroxy-4-oxo-6,7,8,9-tetrahydro-4H-pyrido [1,2-a]pyrimidine-3-carboxamide]
IC50 (Full length SHP2 enzyme): ≤ 50 nM

CC1(CN)CCN(c2nc3[nH]nc(Oc4cccc(Cl)c4Cl)c3c(=O)[nH]2)CC1 [Example 35, 6-(4-(aminomethyl)-4-methylpiperidin-1-yl)-3-(2,3-dichlorophenoxy)-1,5-dihydro-4H-pyrazolo[3,4-d]pyrimidin-4-one]
IC50 (Full length SHP2 enzyme): ≤ 50 nM

Nc1nccc(Sc2cnc(N3CCC4(CC3)Cc3scnc3C4N)c(=O)[nH]2)c1Cl (stereo not drawn) [Example 130, 6-((2-amino-3-chloropyridin-4-yl)thio)-3-(4-amino-4,6-dihydrospiro[cyclopenta[d]thiazole-5,4′-piperidin]-1′-yl)pyrazin-2(1H)-one]
IC50 (Full length SHP2 enzyme): ≤ 50 nM
